Laboratory results reported in ChEMBL document CHEMBL3352756, “Synthesis and evaluation of pyrazolines bearing benzothiazole as anti-inflammatory agents” (Bioorg Med Chem, 2014).

What was measured:
[1] = system: Rattus norvegicus; assay: Antiinflammatory activity in albino Wistar rat paw edema model assessed as inhibition of carrageenan-induced paw edema at 20 mg/kg, po administered 1 hr prior to carrageenan challenge measured after 3 to 5 hrs by plethysmometry relative to vehicle-treated control; assay type: functional
[2] = system: RAW264.7; assay: Antiinflammatory activity in mouse RAW264.7 cells assessed as inhibition of LPS-induced TNF-alpha release at 20 uM after 24 hrs by ELISA; assay type: functional; settings: RAW264.7, 24 h
[3] = system: RAW264.7; assay: (§1) Cytotoxicity against mouse RAW264.7 cells assessed as cell viability at 20 uM after 24 hrs by MTT assay in presence of LPS; assay type: cell-based; settings: raw264.7, 24 h, 20 µM
[4] = as §1; assay type: cell-based; settings: RAW264.7 cells, read-out: Activity
[5] = system: Rattus norvegicus; assay: Toxicity in rat assessed as ulceration at 60 mg/kg, po after 5 hrs; assay type: organism-based; design: dose 60 mg/kg, route oral; settings: in vivo
[6] = system: Rattus norvegicus; assay: Toxicity in rat assessed as damage to epithelial layer of stomach at 60 mg/kg, po after 5 hrs; assay type: organism-based; design: dose 60 mg/kg, route oral; settings: in vivo

Compound	inhibition in vivo at 20 mg/kg [1] [%]	inhibition at 20 µM [2] [%]	Activity [3]	viability at 24 h, 20 µM [4] [%]	Activity [5]	Activity [6]
COc1ccc(C2CC(c3ccc(Cl)cc3)=NN2c2nc3ccc(S(N)(=O)=O)cc3s2)cc1 (stereo unspecified)	67.7	38	Toxic			
NS(=O)(=O)c1ccc2nc(N3N=C(c4ccc(Cl)cc4)CC3c3ccccc3Cl)sc2c1 (stereo unspecified)		38		> 90	Non-toxic	Non-toxic
NS(=O)(=O)c1ccc2nc(N3N=C(c4ccc(Cl)cc4)CC3c3ccc(Cl)cc3)sc2c1 (stereo unspecified)		38		> 90	Non-toxic	Non-toxic
NS(=O)(=O)c1ccc2nc(N3N=C(c4ccc(Cl)cc4)CC3c3ccccc3)sc2c1 (stereo unspecified)	68.3	72.2		> 90	Non-toxic	Non-toxic
NS(=O)(=O)c1ccc2nc(N3N=C(c4ccc(Cl)cc4)CC3c3ccc(F)cc3)sc2c1 (stereo unspecified)		38		86		
Cc1ccc(C2CC(c3ccc(Cl)cc3)=NN2c2nc3ccc(S(N)(=O)=O)cc3s2)cc1 (stereo unspecified)		38				
NS(=O)(=O)c1ccc2nc(N3N=C(c4ccc(Br)cc4)CC3c3ccc(F)cc3)sc2c1 (stereo unspecified)		38		86		
COc1ccc(C2CC(c3ccc(Br)cc3)=NN2c2nc3ccc(S(N)(=O)=O)cc3s2)cc1 (stereo unspecified)		38		86		
NS(=O)(=O)c1ccc2nc(N3N=C(c4ccc(Br)cc4)CC3c3ccc(Cl)cc3)sc2c1 (stereo unspecified)		71.7		90	Non-toxic	Non-toxic
Cc1ccc(-c2cc(C(F)(F)F)nn2-c2ccc(S(N)(=O)=O)cc2)cc1 [CELECOXIB]	67	53.4			Non-toxic	Non-toxic
